Reference: ChEMBL document CHEMBL1131487, “Acetamidine lysine derivative, N-(5(S)-amino-6,7-dihydroxyheptyl)ethanimidamide dihydrochloride: a highly selective inhibitor of human inducible nitric oxide synthase” (J Med Chem, 1998)

Legend:
Nitric oxide synthase 3 = target: T1, Nitric oxide synthase 3 (Homo sapiens, UniProt P29474); assay: Compound was evaluated for the Inhibition of endothelial isoform of Endothelial nitric oxide synthase (eNOS)enzyme
T1 sequence (P29474 whole entry): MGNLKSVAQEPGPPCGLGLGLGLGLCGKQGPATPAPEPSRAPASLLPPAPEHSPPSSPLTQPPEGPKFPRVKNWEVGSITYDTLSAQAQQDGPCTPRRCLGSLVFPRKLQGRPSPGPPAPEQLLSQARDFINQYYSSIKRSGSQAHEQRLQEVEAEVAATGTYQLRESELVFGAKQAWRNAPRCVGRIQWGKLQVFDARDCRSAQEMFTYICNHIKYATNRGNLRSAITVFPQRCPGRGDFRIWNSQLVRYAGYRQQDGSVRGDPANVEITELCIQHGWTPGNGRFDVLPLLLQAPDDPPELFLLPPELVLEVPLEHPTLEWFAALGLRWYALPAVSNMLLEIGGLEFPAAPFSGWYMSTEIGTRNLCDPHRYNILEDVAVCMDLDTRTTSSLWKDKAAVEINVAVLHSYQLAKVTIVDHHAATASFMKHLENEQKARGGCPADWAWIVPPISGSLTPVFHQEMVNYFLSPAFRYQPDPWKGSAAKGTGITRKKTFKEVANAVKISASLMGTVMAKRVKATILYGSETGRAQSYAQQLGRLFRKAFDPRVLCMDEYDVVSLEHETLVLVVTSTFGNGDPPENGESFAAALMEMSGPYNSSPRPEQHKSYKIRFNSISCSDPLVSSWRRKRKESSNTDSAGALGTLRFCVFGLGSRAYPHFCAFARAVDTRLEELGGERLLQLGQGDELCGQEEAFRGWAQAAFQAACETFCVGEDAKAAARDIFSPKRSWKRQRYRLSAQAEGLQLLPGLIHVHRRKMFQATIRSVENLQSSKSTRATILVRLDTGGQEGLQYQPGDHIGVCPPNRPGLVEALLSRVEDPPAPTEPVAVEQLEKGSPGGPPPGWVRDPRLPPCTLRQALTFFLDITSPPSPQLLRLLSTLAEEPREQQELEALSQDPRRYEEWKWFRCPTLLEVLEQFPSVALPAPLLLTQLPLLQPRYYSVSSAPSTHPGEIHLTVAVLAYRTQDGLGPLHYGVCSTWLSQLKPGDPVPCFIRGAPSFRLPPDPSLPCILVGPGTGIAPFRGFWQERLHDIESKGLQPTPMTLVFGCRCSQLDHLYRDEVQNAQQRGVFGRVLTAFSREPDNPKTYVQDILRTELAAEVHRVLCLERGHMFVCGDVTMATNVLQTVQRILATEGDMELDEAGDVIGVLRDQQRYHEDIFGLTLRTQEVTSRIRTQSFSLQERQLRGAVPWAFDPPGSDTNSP

[1] = target: T2, Nitric oxide synthase, inducible (Homo sapiens, UniProt P35228); assay: Compound was evaluated for the Inhibition of induced isoform of Inducible nitric oxide synthase
T2 sequence (P35228 whole entry, canonical isoform): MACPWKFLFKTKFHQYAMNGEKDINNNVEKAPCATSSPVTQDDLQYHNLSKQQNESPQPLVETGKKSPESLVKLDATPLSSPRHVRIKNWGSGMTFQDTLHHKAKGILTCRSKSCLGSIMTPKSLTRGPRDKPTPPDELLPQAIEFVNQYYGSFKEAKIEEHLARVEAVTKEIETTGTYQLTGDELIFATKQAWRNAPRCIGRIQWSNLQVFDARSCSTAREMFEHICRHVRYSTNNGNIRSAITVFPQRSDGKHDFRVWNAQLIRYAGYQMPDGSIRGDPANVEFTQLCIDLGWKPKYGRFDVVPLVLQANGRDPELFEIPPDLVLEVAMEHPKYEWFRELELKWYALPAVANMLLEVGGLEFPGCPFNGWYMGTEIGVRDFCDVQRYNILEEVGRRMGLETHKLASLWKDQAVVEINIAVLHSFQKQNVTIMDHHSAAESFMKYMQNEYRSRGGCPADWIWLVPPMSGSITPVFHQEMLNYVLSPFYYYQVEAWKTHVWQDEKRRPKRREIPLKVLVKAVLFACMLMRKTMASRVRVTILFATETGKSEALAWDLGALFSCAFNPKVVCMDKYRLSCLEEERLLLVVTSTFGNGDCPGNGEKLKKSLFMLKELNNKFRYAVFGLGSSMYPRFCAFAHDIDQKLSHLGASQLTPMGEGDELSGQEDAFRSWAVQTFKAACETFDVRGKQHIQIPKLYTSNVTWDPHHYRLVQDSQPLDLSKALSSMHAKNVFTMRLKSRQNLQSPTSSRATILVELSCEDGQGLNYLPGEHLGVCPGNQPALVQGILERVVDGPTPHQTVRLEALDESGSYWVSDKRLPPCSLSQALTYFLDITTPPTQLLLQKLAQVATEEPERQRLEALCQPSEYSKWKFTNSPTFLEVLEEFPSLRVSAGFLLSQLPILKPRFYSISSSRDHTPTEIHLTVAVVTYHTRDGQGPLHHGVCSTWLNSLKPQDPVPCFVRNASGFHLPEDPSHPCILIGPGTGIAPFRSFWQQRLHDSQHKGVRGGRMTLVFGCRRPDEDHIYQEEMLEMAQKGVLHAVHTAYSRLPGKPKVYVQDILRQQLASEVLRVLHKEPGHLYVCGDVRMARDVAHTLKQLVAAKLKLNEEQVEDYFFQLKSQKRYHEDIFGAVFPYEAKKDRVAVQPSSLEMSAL

[2] = target: Nitric oxide synthase (inducible and endothelial) (Homo sapiens) (UniProt P35228+P29474); assay: Selectivity index determined by the ratio of IC50 of eNOS to the iNOS; type: protein assay
Chain of Nitric oxide synthase (inducible and endothelial) (Homo sapiens) (P35228 whole entry, looked up, one chain of several): as the sequence (P35228 whole entry, canonical isoform) above

[3] = target: Nitric oxide sythases; iNOS & nNOS (Homo sapiens) (UniProt P29475+P35228); assay: Selectivity index determined by the ratio of IC50 of nNOS to the iNOS; type: protein assay
Chain of Nitric oxide sythases; iNOS & nNOS (Homo sapiens) (P29475 whole entry, looked up): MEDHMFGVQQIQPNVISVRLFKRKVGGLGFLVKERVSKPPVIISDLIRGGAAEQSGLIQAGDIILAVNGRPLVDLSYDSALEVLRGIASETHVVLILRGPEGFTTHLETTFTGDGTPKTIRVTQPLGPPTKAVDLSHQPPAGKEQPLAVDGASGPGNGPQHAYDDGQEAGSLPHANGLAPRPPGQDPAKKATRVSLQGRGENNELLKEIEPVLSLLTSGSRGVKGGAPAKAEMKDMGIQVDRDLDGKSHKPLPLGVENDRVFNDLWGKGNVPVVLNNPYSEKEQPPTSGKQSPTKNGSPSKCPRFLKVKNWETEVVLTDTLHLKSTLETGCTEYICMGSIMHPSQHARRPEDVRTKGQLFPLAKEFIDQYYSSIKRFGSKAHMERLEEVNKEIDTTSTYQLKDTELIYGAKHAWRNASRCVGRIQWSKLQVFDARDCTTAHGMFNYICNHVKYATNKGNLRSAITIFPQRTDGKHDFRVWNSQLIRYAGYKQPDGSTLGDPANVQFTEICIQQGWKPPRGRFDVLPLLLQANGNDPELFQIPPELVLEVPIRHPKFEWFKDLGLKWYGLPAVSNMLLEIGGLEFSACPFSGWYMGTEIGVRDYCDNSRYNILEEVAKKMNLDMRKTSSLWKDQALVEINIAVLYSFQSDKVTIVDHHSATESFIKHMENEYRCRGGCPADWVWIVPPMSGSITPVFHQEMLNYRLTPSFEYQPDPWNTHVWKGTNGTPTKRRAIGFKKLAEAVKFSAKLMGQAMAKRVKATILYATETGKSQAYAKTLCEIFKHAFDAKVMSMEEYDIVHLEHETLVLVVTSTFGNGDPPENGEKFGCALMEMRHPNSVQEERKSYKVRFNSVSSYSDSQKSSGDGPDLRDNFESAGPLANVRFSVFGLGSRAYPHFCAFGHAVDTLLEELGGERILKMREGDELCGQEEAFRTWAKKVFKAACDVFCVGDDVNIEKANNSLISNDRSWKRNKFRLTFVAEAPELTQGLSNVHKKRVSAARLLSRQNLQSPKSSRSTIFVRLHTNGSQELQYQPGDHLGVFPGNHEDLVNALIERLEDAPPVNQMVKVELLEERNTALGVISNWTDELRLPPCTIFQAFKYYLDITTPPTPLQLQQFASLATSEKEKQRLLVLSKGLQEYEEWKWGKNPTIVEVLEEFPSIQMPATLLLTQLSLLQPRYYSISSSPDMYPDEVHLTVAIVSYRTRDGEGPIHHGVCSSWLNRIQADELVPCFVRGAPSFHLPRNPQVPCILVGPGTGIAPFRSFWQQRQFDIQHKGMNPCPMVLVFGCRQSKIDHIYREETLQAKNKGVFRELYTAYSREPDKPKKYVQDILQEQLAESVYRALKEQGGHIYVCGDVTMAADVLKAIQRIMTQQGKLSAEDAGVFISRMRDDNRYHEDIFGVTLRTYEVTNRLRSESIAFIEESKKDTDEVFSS
Chain of Nitric oxide sythases; iNOS & nNOS (Homo sapiens) (P35228 whole entry, looked up): as the sequence (P35228 whole entry, canonical isoform) above

Nitric oxide synthase 1 [4] = target: T3, Nitric oxide synthase 1 (Homo sapiens, UniProt P29475); assay: Compound was evaluated for the Inhibition of Neuronal nitric oxide synthase
T3 sequence (P29475 whole entry, canonical isoform): as the sequence (P29475 whole entry, looked up) above

[5] = target: T4, Nitric oxide synthase 3 (Homo sapiens) (UniProt P29474); assay: Compound was evaluated for the Inhibition of endothelial isoform of Endothelial nitric oxide synthase (eNOS)enzyme at 100 uM concentration
T4 sequence (whole entry): T1 sequence (P29474 whole entry)

[6] = target: T2, Nitric oxide synthase, inducible; assay: Compound was evaluated for the Inhibition of induced isoform of Inducible nitric oxide synthase at 100 uM concentration
Nitric oxide synthase 1 [7] = target: T3, Nitric oxide synthase 1; assay: Compound was evaluated for the Inhibition of Neuronal nitric oxide synthase at 100 uM concentration

IC50 (Nitric oxide synthase 3)	IC50 [1]	Selectivity index [2]	Selectivity index [3]	IC50 (Nitric oxide synthase 1 [4])	inhibition [5]	inhibition [6]	inhibition (Nitric oxide synthase 1 [7])	Compound
138 µM	5 µM	30	12					CC(=N)NCCCC[C@H](N)C(=O)O [L-NIL]
8420 µM	12 µM	700	12	150 µM				CC(=N)NCCCC[C@H](N)[C@@H](O)CO
					0%	49%	13%	CC(=N)NCCCC[C@H](N)[C@H](O)CO
